Measurements: patent US4435583A, “2-Halo-substituted monic acid A useful as antibacterial compounds” (Beecham Group p.l.c., priority 1981, dated 1984)
Converted amounts (≈) assume the structure as drawn.

Columns and labels:
Type in all cases: cell-based
P. mirabilis 889 = assay: MIC against human bacteria; settings: Proteus mirabilis, nutrient agar, 5% chocolated horse blood, 18 hours, 37° C., read-out: MIC
Protocol: (§1) The values were determined by serial dilutions in nutrient agar with 5% chocolated horse blood after incubations for 18 hours at 37° C.

Staph. aureus Oxford [1] = assay: MIC against human bacteria; settings: Staphylococcus aureus, 18 h, nutrient agar, 5% chocolated horse blood, 37° C., read-out: MIC
Protocol: as §1

[2] = tested on: Corynebacterium xerosis 9755; assay: MIC against human bacteria; settings: nutrient agar, 5% chocolated horse blood, 18 hours, 37° C., read-out: MIC
Protocol: as §1

[3] = tested on: Neisseria catarrhalis 1502; assay: MIC against human bacteria; settings: Neisseria, 1502, 18 h, nutrient agar, 5% chocolated horse blood, 37° C., read-out: MIC
Protocol: as §1

E. coli ESS = assay: MIC against human bacteria; settings: Escherichia coli, 18 h, nutrient agar, 5% chocolated horse blood, 37° C., read-out: MIC
Protocol: as §1

Past. multocida 1633 = assay: MIC against human bacteria; settings: Pasteurella multocida, 1633, 18 h, nutrient agar, 5% chocolated horse blood, 37° C., read-out: MIC
Protocol: as §1

Strep. faecalis I = assay: MIC against human bacteria; settings: Enterococcus faecalis, nutrient agar, 5% chocolated horse blood, 18 hours, 37° C., read-out: MIC
Protocol: as §1

Staph. aureus W2827 = assay: MIC against human bacteria; settings: Staphylococcus aureus, W2827, 18 h, nutrient agar, 5% chocolated horse blood, 37° C., read-out: MIC
Protocol: as §1

Staph. aureus Russell = assay: MIC against human bacteria; settings: Staphylococcus aureus, 18 h, nutrient agar, 5% chocolated horse blood, 37° C., read-out: MIC
Protocol: as §1

Strep. 2788-B = assay: MIC against human bacteria; settings: 18 h, nutrient agar, 5% chocolated horse blood, 37° C., read-out: MIC
Protocol: as §1

E. coli NCTC 10418 [4] = assay: MIC against human bacteria; settings: Escherichia coli, NCTC10418, nutrient agar, 5% chocolated horse blood, 18 hours, 37° C., read-out: MIC
Protocol: as §1

Strep. 641848-C = assay: MIC against human bacteria; settings: 18 h, nutrient agar, 5% chocolated horse blood, 37° C., read-out: MIC
Protocol: as §1

[5] = tested on: Haemophilus influenzae Q1; assay: MIC against human bacteria; settings: nutrient agar, 5% chocolated horse blood, 18 hours, 37° C., read-out: MIC
Protocol: as §1

K. aerogenes A = assay: MIC against human bacteria; settings: Klebsiella aerogenes, nutrient agar, 5% chocolated horse blood, 18 hours, 37° C., read-out: MIC
Protocol: as §1

Bacillus subtilis 6633 = assay: MIC against human bacteria; settings: Bacillus subtilis, 6633, 18 h, nutrient agar, 5% chocolated horse blood, 37° C., read-out: MIC
Protocol: as §1

[6] = tested on: Strep. pyrogenes R80/421-A; assay: MIC against human bacteria; settings: 18 h, nutrient agar, 5% chocolated horse blood, 37° C., read-out: MIC
Protocol: as §1

Sarcina lutea 8340 = assay: MIC against human bacteria; settings: Micrococcus luteus, nutrient agar, 5% chocolated horse blood, 18 hours, 37° C., read-out: MIC
Protocol: as §1

Strep. pneumoniae CN33 = assay: MIC against human bacteria; settings: Streptococcus pneumoniae, CN33, 18 h, nutrient agar, 5% chocolated horse blood, 37° C., read-out: MIC
Protocol: as §1

[7] = tested on: Ps. aeruginosa NCTC 10662; assay: MIC against human bacteria; settings: Pseudomonas aeruginosa, NCTC10662, nutrient agar, 5% chocolated horse blood, 18 hours, 37° C., read-out: MIC
Protocol: as §1

Staph. aureus 152 = assay: MIC against veterinary bacteria; settings: Staphylococcus aureus, 152, 18 h, Diagnostic Sensitivity Test Agar, 37° C., read-out: MIC
Protocol: (§2) The values were determined using a two fold serial dilutions in Diagnostic Sensitivity Test Agar with an inoculum of 10^4 organisms and incubation for 18 hours at 37° C.

Staph. aureus Oxford [8] = assay: MIC against veterinary bacteria; settings: Staphylococcus aureus, 18 h, Diagnostic Sensitivity Test Agar, 37° C., read-out: MIC
Protocol: as §2

Strep. uberis SPU1 = assay: MIC against veterinary bacteria; settings: Streptococcus uberis, SPU1, 18 h
Protocol: as §2

[9] = tested on: Erysipelothrix rhusiopathiae NCTC 8163; assay: MIC against veterinary bacteria; settings: NCTC8163, Diagnostic Sensitivity Test Agar, 18 hours, 37° C., read-out: MIC
Protocol: as §2

Past. haemolytica PA5 = assay: MIC against veterinary bacteria; settings: Mannheimia haemolytica, PA5, 18 h, Diagnostic Sensitivity Test Agar, 37° C., read-out: MIC
Protocol: as §2

Staph. aureus B4 = assay: MIC against veterinary bacteria; settings: Staphylococcus aureus, B4, 18 h, Diagnostic Sensitivity Test Agar, 37° C., read-out: MIC
Protocol: as §2

[10] = tested on: Strep. suis (group D) SPS11; assay: MIC against veterinary bacteria; settings: Streptococcus suis, 18 h, Diagnostic Sensitivity Test Agar, 37° C., read-out: MIC
Protocol: as §2

Strep. agalactiae SPA1 = assay: MIC against veterinary bacteria; settings: Streptococcus agalactiae, SPA1, 18 h, Diagnostic Sensitivity Test Agar, 37° C., read-out: MIC
Protocol: as §2

[11] = tested on: Corynebacterium pyogenes CY1; assay: MIC against veterinary bacteria; settings: Rhodococcus (subgen. Prescottella) equi, Diagnostic Sensitivity Test Agar, 18 hours, 37° C., read-out: MIC
Protocol: as §2

Bord. bronchiseptica B09 = assay: MIC against veterinary bacteria; settings: Bordetella bronchiseptica, B09, 18 h, Diagnostic Sensitivity Test Agar, 37° C., read-out: MIC
Protocol: as §2

Past. multocida PA1 = assay: MIC against veterinary bacteria; settings: Pasteurella multocida, PA1, 18 h, Diagnostic Sensitivity Test Agar, 37° C., read-out: MIC
Protocol: as §2

Strep. dysgalactiae SPD1 = assay: MIC against veterinary bacteria; settings: Streptococcus dysgalactiae, SPD1, 18 h, Diagnostic Sensitivity Test Agar, 37° C., read-out: MIC
Protocol: as §2

Bord. bronchiseptica B08 = assay: MIC against veterinary bacteria; settings: Bordetella bronchiseptica, B08, 18 h, Diagnostic Sensitivity Test Agar, 37° C., read-out: MIC
Protocol: as §2

E. coli NCTC 10418 [12] = assay: MIC against veterinary bacteria; settings: Escherichia coli, NCTC10418, Diagnostic Sensitivity Test Agar, 18 hours, 37° C., read-out: MIC
Protocol: as §2

E. coli E1 = assay: MIC against veterinary bacteria; settings: Escherichia coli, Diagnostic Sensitivity Test Agar, 18 hours, 37° C., read-out: MIC
Protocol: as §2

S. dublin S7 = assay: MIC against veterinary bacteria; settings: Salmonella enterica, Diagnostic Sensitivity Test Agar, 18 hours, 37° C., read-out: MIC
Protocol: as §2

Past. multocida PA2 = assay: MIC against veterinary bacteria; settings: Pasteurella multocida, PA2, 18 h, Diagnostic Sensitivity Test Agar, 37° C., read-out: MIC
Protocol: as §2

S. typhimurium S18 = assay: MIC against veterinary bacteria; settings: Salmonella enterica, Diagnostic Sensitivity Test Agar, 18 hours, 37° C., read-out: MIC
Protocol: as §2

For `CC(CC1OCC(CC2OC2C(C)C(C)O)C(O)C1O)=C(F)C(=O)OCc1cccc([N+](=O)[O-])c1` [Example 4, 3-Nitrobenzyl 4-[5S-(2S,3S-epoxy-5S-hydroxy-4S-methylhexyl)-3R,4R-dihydroxytetrahydropyran-2S-yl]-2-fluoro-3-methylbut-2(Z)-enoate], the MIC (P. mirabilis 889) was greater than 100 µg/mL, the MIC (Staph. aureus Oxford [1]) was 2.5 µg/mL (≈ 5.02 µM) and the MIC [2] was greater than 100 µg/mL. For the same molecule, the MIC [3] was 0.5 µg/mL (≈ 1 µM), the MIC (E. coli ESS) was 1 µg/mL (≈ 2.01 µM) and the MIC (Past. multocida 1633) was 2.5 µg/mL (≈ 5.02 µM). The MIC (Strep. faecalis I) was greater than 100 µg/mL, the MIC (Staph. aureus W2827) was 2.5 µg/mL (≈ 5.02 µM) and the MIC (Staph. aureus Russell) was 2.5 µg/mL (≈ 5.02 µM). For the same molecule, the MIC (Strep. 2788-B) was 2.5 µg/mL (≈ 5.02 µM), the MIC (E. coli NCTC 10418 [4]) was greater than 100 µg/mL and the MIC (Strep. 641848-C) was 0.5 µg/mL (≈ 1 µM). For the same molecule, the MIC [5] was 0.5 µg/mL (≈ 1 µM), the MIC (K. aerogenes A) was greater than 100 µg/mL and the MIC (Bacillus subtilis 6633) was 0.5 µg/mL (≈ 1 µM). For the same molecule, the MIC [6] was 0.5 µg/mL (≈ 1 µM), the MIC (Sarcina lutea 8340) was greater than 100 µg/mL and the MIC (Strep. pneumoniae CN33) was 0.5 µg/mL (≈ 1 µM). It also gave an MIC [7] greater than 100 µg/mL, an MIC (Staph. aureus 152) of 1.25 µg/mL (≈ 2.51 µM) and an MIC (Staph. aureus Oxford [8]) of 1.25 µg/mL (≈ 2.51 µM). The MIC (Strep. uberis SPU1) was 0.156 µg/mL (≈ 0.314 µM), the MIC [9] was 80 µg/mL (≈ 161 µM) and the MIC (Past. haemolytica PA5) was 10 µg/mL (≈ 20.1 µM). It also gave an MIC (Staph. aureus B4) of 2.5 µg/mL (≈ 5.02 µM), an MIC [10] of 5 µg/mL (≈ 10 µM) and an MIC (Strep. agalactiae SPA1) of 1.25 µg/mL (≈ 2.51 µM). It also gave an MIC [11] of 80 µg/mL (≈ 161 µM), an MIC (Bord. bronchiseptica B09) of 10 µg/mL (≈ 20.1 µM) and an MIC (Past. multocida PA1) of 0.625 µg/mL (≈ 1.26 µM). It also gave an MIC (Strep. dysgalactiae SPD1) of 0.312 µg/mL (≈ 0.627 µM), an MIC (Bord. bronchiseptica B08) of 80 µg/mL (≈ 161 µM) and an MIC (E. coli NCTC 10418 [12]) greater than 80 µg/mL. For the same molecule, the MIC (E. coli E1) was greater than 80 µg/mL, the MIC (S. dublin S7) was greater than 80 µg/mL and the MIC (Past. multocida PA2) was 0.312 µg/mL (≈ 0.627 µM). For the same molecule, the MIC (S. typhimurium S18) was greater than 80 µg/mL.
